Literature values in patent publication US20220152000A1, “PROLONGED RELEASE FORMULATION COMPRISING TACROLIMUS” (PHARMATHEN S.A., priority 2019, published 2022).
Values after ≈ are worked out from the molar mass of the structure shown.

Assays:
[1] = simultaneous ingestion of food versus fasted
CYP3A4 isoenzyme = target: T1, CYP3A4 isoenzyme (Homo sapiens, UniProt P08684); details: gut wall and liver
T1 construct: metabolized by the CYP3A4 isoenzyme in the gut wall and liver; from tissue; host or cells: gut wall and liver
T1 sequence (P08684 whole entry): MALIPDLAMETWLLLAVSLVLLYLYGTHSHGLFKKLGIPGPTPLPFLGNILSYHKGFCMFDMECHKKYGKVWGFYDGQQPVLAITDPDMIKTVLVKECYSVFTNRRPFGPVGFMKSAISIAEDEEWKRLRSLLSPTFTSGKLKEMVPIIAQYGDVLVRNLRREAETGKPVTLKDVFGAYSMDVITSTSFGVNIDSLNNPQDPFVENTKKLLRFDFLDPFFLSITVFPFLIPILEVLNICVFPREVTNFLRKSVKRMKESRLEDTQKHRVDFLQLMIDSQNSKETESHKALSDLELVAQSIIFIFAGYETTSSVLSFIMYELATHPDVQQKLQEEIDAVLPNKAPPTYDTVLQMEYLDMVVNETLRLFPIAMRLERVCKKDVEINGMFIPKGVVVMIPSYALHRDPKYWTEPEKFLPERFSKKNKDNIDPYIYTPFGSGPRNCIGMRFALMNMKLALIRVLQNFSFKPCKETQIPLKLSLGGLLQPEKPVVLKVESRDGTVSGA

C=CC[C@@H]1/C=C(\C)C[C@H](C)C[C@H](OC)[C@H]2O[C@@](O)(C(=O)C(=O)N3CCCC[C@H]3C(=O)O[C@H](/C(C)=C/[C@@H]3CC[C@@H](O)[C@H](OC)C3)[C@H](C)[C@@H](O)CC1=O)[C@H](C)C[C@@H]2OC [Tacrolimus]
Solubility in ethanol (ethanol): 25 mg/mL (≈ 31.1 mM)
Solubility in hexane, petroleum ether (hexane, petroleum ether): sparingly soluble
Solubility in organic solvents (methanol, ethanol, acetone, ethyl acetate, diethyl ether, chloroform, dicloromethane): soluble
Solubility in water (water): insoluble
Absorption after oral administration, effect of food [1]: negatively influenced by simultaneous ingestion of food
Metabolism by CYP3A4 (CYP3A4 isoenzyme): extensively metabolized
